Source: the supplement of paper PMC4862054

Experiments:
Details in all cases: 72 h
MDA-MB-453 [1] = test system: MDA-MB-453
Description: (§1)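 Drug sensitivity and resistance testing (DSRT) of breast cancer cell lines in 384-well plates, 5 concentrations in 10-fold dilutions over a compound-specific 10,000-fold range. After 72 h, cytotoxicity was read by CellTox Green fluorescence and viability by CellTiter-Glo luminescence (multiplexed), normalised to DMSO and benzethonium chloride controls. EC50 is the inflection point of the fitted dose-response curve (bottom asymptote free, so it can be relative for partial curves) and is censored at the highest tested concentration. Rows with DSS 0 (no meaningful response) were excluded.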

MCF-10A [2] = test system: MCF-10A
Description: as §1

HCC1599 [3] = test system: HCC1599
Description: as §1

HCC1143 [4] = test system: HCC1143
Description: as §1

Hs578T [5] = test system: Hs578T
Description: as §1

HCC1937 [6] = test system: HCC1937
Description: as §1

MDA-MB-231 [7] = test system: MDA-MB-231
Description: as §1

DU-4475 [8] = test system: DU-4475
Description: as §1

CAL-85-1 [9] = test system: CAL-85-1
Description: as §1

BT-549 [10] = test system: BT-549
Description: as §1

HDQ-P1 [11] = test system: HDQ-P1
Description: as §1

MFM-223 [12] = test system: MFM-223
Description: as §1

CAL-51 [13] = test system: CAL-51
Description: as §1

BT-474 [14] = test system: BT-474
Description: as §1

MDA-MB-468 [15] = test system: MDA-MB-468
Description: as §1

MDA-MB-453 [16] = test system: MDA-MB-453; remark: listed apart in the source
How it was run: (§2)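 Breast cancer cell lines in 20 µl suspension were added to 384-well plates already holding compound at 5 concentrations, spaced in 10-fold steps across a compound-specific 10,000-fold range, and incubated for 72 h. CellTox Green fluorescence (485/520 nm) was read first to measure cell death, followed by CellTiter-Glo luminescence for viability after 10 min at room temperature. Each plate was normalised to 0.1 % DMSO and a positive kill control. EC50 values came from dose-response curve fits and were censored at the top concentration.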

MCF-10A [17] = test system: MCF-10A; remark: listed apart in the source
How it was run: as §2

HCC1599 [18] = test system: HCC1599; remark: listed apart in the source
How it was run: as §2

HCC1143 [19] = test system: HCC1143; remark: listed apart in the source
How it was run: as §2

CAL-148 = test system: CAL-148
How it was run: as §2

Hs578T [20] = test system: Hs578T; remark: listed apart in the source
How it was run: as §2

HCC1937 [21] = test system: HCC1937; remark: listed apart in the source
How it was run: as §2

MDA-MB-436 [22] = test system: MDA-MB-436
How it was run: as §2

CAL-120 [23] = test system: CAL-120
How it was run: as §2

MDA-MB-231 [24] = test system: MDA-MB-231; remark: listed apart in the source
How it was run: as §2

DU-4475 [25] = test system: DU-4475; remark: listed apart in the source
How it was run: as §2

CAL-85-1 [26] = test system: CAL-85-1; remark: listed apart in the source
How it was run: as §2

SK-BR-3 [27] = test system: SK-BR-3
How it was run: as §2

BT-549 [28] = test system: BT-549; remark: listed apart in the source
How it was run: as §2

MFM-223 [29] = test system: MFM-223; remark: listed apart in the source
How it was run: as §2

CAL-51 [30] = test system: CAL-51; remark: listed apart in the source
How it was run: as §2

CAL-120 [31] = test system: CAL-120; remark: listed apart in the source
Description: as §1

HCC1143 [32] = test system: HCC1143; remark: listed apart in the source
How it was run: (§3)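 Breast cancer cell lines in 20 µl suspension were seeded onto 384-well plates that already held compound dissolved in 5 µl medium and were incubated for 72 h. Viability was measured by adding 2.5 µl CellTiter-Blue for 2 h at 37 °C and reading fluorescence at 560/590 nm. Each plate was normalised to vehicle and a positive kill control and checked by Z'-factor. EC50 was taken from a fitted percent-inhibition dose-response curve, censored at the highest concentration, and rows with a drug sensitivity score of zero were removed.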

Hs578T [33] = test system: Hs578T; remark: listed apart in the source
How it was run: as §3

HCC1937 [34] = test system: HCC1937; remark: listed apart in the source
How it was run: as §3

MDA-MB-436 [35] = test system: MDA-MB-436; remark: listed apart in the source
How it was run: as §3

CAL-120 [36] = test system: CAL-120; remark: listed apart in the source
How it was run: as §3

MDA-MB-231 [37] = test system: MDA-MB-231; remark: listed apart in the source
How it was run: as §3

SK-BR-3 [38] = test system: SK-BR-3; remark: listed apart in the source
How it was run: as §3

BT-549 [39] = test system: BT-549; remark: listed apart in the source
How it was run: as §3

BT-474 [40] = test system: BT-474; remark: listed apart in the source
How it was run: as §3

MDA-MB-468 [41] = test system: MDA-MB-468; remark: listed apart in the source
How it was run: as §3

MDA-MB-453 [42] = test system: MDA-MB-453; remark: listed apart in the source
How it was run: as §3

DU-4475 [43] = test system: DU-4475; remark: listed apart in the source
How it was run: as §3

CAL-85-1 [44] = test system: CAL-85-1; remark: listed apart in the source
How it was run: as §3

HDQ-P1 [45] = test system: HDQ-P1; remark: listed apart in the source
How it was run: as §3

CAL-51 [46] = test system: CAL-51; remark: listed apart in the source
How it was run: as §3

HCC1599 [47] = test system: HCC1599; remark: listed apart in the source
How it was run: as §3

SMILES	EC50, CellTox Green (Hs578T [5])	EC50, CellTox Green (MDA-MB-231 [7])	EC50, CellTox Green (BT-549 [10])	EC50, CellTox Green (MFM-223 [12])	EC50, CellTox Green (CAL-51 [13])	EC50, CellTox Green (BT-474 [14])	EC50, CellTox Green (MDA-MB-468 [15])	EC50, CellTiter-Glo (MDA-MB-453 [16])	EC50, CellTiter-Glo (HCC1599 [18])	EC50, CellTiter-Glo (HCC1143 [19])	EC50, CellTiter-Glo (CAL-148)	EC50, CellTiter-Glo (Hs578T [20])	EC50, CellTiter-Glo (MDA-MB-436 [22])	EC50, CellTiter-Glo (CAL-120 [23])	EC50, CellTiter-Glo (MDA-MB-231 [24])	EC50, CellTiter-Glo (DU-4475 [25])	EC50, CellTiter-Glo (CAL-85-1 [26])	EC50, CellTiter-Glo (SK-BR-3 [27])	EC50, CellTiter-Glo (CAL-51 [30])	EC50, CellTiter-Blue viability (HCC1937 [34])	other results
Cc1ccc([N+](=O)[O-])cc1S(=O)(=O)N(C)/N=C/c1cnc2ccc(Br)cn12 [PIK-75]	42 nM	6.39 nM	274 nM	582 nM	6.21 nM	161 nM	178 nM	98.6 nM	87.2 nM	51.3 nM	21.1 nM	35.4 nM	29.8 nM	29.2 nM	27.6 nM	35.2 nM	30.6 nM	26.8 nM	21.3 nM	–	EC50, CellTox Green (MDA-MB-453 [1]): 597 nM; EC50, CellTox Green (MCF-10A [2]): 16.6 nM; EC50, CellTox Green (HCC1599 [3]): 33.9 nM; EC50, CellTox Green (HCC1143 [4]): 182 nM; EC50, CellTox Green (HCC1937 [6]): 6400 nM; EC50, CellTox Green (DU-4475 [8]): 23.8 nM; EC50, CellTox Green (CAL-85-1 [9]): 31.6 nM; EC50, CellTox Green (HDQ-P1 [11]): 105 nM; EC50, CellTiter-Glo (MCF-10A [17]): 45.7 nM; EC50, CellTiter-Glo (HCC1937 [21]): 48.5 nM; EC50, CellTiter-Glo (BT-549 [28]): 39 nM; EC50, CellTiter-Glo (MFM-223 [29]): 52.1 nM
COc1cc2c(cc1O)CC[C@@H]1[C@@H]2CC[C@]2(C)[C@@H](O)CC[C@@H]12 [2-methoxyestradiol]	1820 nM	756 nM	> 10000 nM	660 nM	4060 nM	370 nM	–	543 nM	6410 nM	1300 nM	7660 nM	1400 nM	1060 nM	1020 nM	938 nM	4530 nM	2220 nM	3130 nM	4930 nM	820 nM	EC50, CellTox Green (CAL-120 [31]): 6410 nM; EC50, CellTiter-Blue viability (HCC1143 [32]): 5620 nM; EC50, CellTiter-Blue viability (Hs578T [33]): 1210 nM; EC50, CellTiter-Blue viability (MDA-MB-436 [35]): 697 nM; EC50, CellTiter-Blue viability (CAL-120 [36]): 1510 nM; EC50, CellTiter-Blue viability (MDA-MB-231 [37]): 432 nM; EC50, CellTiter-Blue viability (SK-BR-3 [38]): 5800 nM; EC50, CellTiter-Blue viability (BT-549 [39]): 1020 nM; EC50, CellTiter-Blue viability (BT-474 [40]): 747 nM; EC50, CellTiter-Blue viability (MDA-MB-468 [41]): 3190 nM; EC50, CellTiter-Glo (BT-549 [28]): 251 nM; EC50, CellTiter-Glo (MFM-223 [29]): 1830 nM; EC50, CellTiter-Blue viability (MDA-MB-453 [42]): 552 nM; EC50, CellTiter-Blue viability (DU-4475 [43]): 1730 nM; EC50, CellTiter-Blue viability (CAL-85-1 [44]): 1280 nM; EC50, CellTiter-Blue viability (HDQ-P1 [45]): 4220 nM; EC50, CellTiter-Blue viability (CAL-51 [46]): 2450 nM
O=C1CN2Cc3c(ccc(Cl)c3Cl)N=C2N1 [Anagrelide]	–	–	–	–	30.6 nM	–	–	–	–	–	–	–	–	–	–	–	–	–	> 10000 nM	398 nM	EC50, CellTiter-Blue viability (CAL-51 [46]): 77.5 nM
C[C@]1(O)C[C@@H](c2nc(-c3ccc4ccc(-c5ccccc5)nc4c3)c3c(N)nccn32)C1 [OSI-906]	–	–	–	–	–	–	–	–	–	–	–	–	–	–	–	–	–	–	–	9830 nM	EC50, CellTiter-Blue viability (HCC1599 [47]): 204 nM; EC50, CellTiter-Blue viability (HCC1143 [32]): 881 nM; EC50, CellTiter-Blue viability (Hs578T [33]): 1910 nM; EC50, CellTiter-Blue viability (SK-BR-3 [38]): 105 nM; EC50, CellTiter-Blue viability (BT-549 [39]): 7100 nM; EC50, CellTiter-Blue viability (BT-474 [40]): 1680 nM; EC50, CellTiter-Blue viability (CAL-85-1 [44]): 7720 nM; EC50, CellTiter-Blue viability (HDQ-P1 [45]): 278 nM
C[C@]12CC[C@@H]3c4ccc(OC(=O)N(CCCl)CCCl)cc4CC[C@H]3[C@@H]1CC[C@@H]2O [Estramustine]	–	–	–	–	131 nM	–	4990 nM	–	–	–	–	–	–	–	–	–	–	–	–	–	–
